Assay results: patent US9828378B2, “Kinase inhibitors and methods of use” (Intellikine LLC, priority 2008, dated 2017)
Like-named read-outs stand apart in the source and are kept apart here.

Experiments:
Type in all cases: biochemical
mTORC = mTORC (Homo sapiens (Human), UniProt P42345); assay: mTOR kinase inhibition assay; conditions: Table 1; read-out: mTORC IC50
PI3K α = PI3K α (Homo sapiens (Human), UniProt P42336); assay: PI3K α inhibition assay; conditions: Table 1; read-out: PI3K α IC50
PI3K γ = PI3K γ (Homo sapiens (Human), UniProt P48736); assay: PI3K γ inhibition assay; conditions: Table 1; read-out: PI3K γ IC50
PI3K δ = PI3K δ (Homo sapiens (Human), UniProt O00329); assay: PI3K δ inhibition assay; conditions: Table 1; read-out: PI3K δ IC50
PI3K β = PI3K β (Homo sapiens (Human), UniProt P42338); assay: PI3K β inhibition assay
Sequence of PI3K β (P42338 whole entry): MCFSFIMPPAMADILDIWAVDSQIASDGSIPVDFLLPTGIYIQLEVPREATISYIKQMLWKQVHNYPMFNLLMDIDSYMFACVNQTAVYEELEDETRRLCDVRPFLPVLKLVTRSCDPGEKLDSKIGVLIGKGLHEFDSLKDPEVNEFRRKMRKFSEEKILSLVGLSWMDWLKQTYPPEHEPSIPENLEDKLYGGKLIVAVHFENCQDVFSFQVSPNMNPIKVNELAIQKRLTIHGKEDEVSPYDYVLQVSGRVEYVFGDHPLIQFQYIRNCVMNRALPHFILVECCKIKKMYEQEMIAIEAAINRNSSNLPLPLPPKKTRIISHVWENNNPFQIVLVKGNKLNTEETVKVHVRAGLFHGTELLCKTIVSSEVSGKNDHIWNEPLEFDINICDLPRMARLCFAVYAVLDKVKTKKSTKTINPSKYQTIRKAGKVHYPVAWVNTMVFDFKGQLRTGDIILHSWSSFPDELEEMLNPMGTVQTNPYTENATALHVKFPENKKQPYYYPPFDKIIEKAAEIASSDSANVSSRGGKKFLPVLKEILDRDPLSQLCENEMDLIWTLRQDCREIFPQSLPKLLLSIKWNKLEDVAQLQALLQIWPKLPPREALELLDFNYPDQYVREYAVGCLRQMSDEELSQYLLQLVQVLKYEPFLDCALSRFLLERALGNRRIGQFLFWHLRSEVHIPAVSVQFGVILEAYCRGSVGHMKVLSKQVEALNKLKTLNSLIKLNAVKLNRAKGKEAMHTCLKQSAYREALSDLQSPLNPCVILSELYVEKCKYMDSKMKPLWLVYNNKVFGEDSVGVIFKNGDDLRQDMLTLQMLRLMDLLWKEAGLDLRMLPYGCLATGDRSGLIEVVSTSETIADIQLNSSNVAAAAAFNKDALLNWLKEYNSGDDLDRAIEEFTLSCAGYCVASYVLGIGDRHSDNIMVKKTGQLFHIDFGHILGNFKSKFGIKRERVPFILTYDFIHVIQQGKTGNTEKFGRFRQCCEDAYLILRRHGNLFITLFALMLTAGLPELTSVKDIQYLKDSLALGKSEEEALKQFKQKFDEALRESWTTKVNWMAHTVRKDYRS
Sequence of PI3K β (P27986 whole entry partner): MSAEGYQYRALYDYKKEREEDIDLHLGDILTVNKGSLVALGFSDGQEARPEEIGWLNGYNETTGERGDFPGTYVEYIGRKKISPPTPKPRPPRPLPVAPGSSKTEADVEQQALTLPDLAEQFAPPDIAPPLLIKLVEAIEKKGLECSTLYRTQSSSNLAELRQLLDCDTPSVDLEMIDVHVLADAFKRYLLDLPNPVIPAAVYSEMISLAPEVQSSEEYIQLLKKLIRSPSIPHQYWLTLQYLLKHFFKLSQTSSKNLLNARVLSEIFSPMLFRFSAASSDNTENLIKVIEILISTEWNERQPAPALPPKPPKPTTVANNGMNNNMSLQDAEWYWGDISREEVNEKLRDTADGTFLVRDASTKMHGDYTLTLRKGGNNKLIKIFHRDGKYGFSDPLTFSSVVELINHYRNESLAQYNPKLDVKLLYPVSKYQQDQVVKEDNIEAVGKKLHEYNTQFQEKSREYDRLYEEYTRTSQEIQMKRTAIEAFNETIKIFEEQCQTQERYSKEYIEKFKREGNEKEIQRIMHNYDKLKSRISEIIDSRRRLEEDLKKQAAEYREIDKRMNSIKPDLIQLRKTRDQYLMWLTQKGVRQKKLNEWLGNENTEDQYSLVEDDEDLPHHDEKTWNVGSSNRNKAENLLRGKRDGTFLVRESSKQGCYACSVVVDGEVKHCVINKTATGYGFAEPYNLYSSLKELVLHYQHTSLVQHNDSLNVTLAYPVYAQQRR

Sequence of PI3K δ (O00329 whole entry): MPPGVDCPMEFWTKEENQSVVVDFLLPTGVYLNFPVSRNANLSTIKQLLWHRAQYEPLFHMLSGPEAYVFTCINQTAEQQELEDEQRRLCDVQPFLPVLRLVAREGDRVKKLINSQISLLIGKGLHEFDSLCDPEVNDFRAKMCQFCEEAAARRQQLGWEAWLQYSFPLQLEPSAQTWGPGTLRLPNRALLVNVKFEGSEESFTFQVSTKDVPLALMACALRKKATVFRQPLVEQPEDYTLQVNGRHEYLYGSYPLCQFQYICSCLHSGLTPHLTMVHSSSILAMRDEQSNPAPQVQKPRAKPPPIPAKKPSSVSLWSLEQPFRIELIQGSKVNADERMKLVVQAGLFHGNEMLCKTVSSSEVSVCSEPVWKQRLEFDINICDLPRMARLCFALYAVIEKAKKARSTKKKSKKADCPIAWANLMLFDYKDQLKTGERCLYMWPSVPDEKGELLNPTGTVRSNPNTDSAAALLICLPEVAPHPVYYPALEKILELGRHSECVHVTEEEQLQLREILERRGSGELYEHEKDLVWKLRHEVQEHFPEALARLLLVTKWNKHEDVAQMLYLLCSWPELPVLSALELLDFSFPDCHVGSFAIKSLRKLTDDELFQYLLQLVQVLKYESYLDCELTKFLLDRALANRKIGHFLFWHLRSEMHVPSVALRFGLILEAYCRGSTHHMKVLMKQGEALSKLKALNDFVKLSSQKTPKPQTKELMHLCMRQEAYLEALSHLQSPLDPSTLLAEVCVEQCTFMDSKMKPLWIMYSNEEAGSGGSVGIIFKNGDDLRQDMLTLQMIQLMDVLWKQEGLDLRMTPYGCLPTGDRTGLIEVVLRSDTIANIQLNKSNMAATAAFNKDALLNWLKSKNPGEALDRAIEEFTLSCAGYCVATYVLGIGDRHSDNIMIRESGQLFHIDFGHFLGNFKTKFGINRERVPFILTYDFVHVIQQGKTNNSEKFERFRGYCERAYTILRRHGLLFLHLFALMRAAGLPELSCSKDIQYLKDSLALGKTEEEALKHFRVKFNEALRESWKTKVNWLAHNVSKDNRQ
Sequence of PI3K δ (P27986 whole entry partner): as the sequence (P27986 whole entry partner) above
Sequence of PI3K γ (P48736 whole entry): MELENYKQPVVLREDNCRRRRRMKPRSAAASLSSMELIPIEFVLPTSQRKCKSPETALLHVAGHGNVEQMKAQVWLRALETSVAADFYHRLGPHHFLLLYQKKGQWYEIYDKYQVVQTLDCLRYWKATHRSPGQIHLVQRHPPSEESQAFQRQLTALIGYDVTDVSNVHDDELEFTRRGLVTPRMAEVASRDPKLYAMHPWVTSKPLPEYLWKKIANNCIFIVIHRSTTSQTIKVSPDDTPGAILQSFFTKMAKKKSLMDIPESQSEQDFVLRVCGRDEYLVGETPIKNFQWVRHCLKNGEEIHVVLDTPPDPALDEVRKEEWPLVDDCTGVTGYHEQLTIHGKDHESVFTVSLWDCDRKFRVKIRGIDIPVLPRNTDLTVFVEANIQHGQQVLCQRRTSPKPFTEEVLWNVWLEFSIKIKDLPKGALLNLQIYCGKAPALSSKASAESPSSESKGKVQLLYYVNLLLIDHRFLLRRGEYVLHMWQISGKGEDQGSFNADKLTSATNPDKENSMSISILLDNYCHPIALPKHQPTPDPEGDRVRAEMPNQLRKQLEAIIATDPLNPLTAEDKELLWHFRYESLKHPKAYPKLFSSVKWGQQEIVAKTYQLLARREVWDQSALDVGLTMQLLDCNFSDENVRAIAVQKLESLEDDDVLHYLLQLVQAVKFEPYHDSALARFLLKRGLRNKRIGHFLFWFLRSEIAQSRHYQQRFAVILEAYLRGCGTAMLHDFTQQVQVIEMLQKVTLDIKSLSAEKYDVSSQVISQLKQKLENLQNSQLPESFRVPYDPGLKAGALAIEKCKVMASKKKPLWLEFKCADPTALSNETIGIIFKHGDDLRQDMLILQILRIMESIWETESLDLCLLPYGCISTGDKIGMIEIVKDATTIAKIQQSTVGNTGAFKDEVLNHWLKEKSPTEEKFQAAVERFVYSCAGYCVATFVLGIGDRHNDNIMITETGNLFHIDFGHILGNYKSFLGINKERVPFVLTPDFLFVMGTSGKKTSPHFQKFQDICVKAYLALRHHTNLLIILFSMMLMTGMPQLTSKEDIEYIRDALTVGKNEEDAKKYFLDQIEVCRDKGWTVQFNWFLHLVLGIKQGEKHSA
Sequence of PI3K α (P42336 whole entry): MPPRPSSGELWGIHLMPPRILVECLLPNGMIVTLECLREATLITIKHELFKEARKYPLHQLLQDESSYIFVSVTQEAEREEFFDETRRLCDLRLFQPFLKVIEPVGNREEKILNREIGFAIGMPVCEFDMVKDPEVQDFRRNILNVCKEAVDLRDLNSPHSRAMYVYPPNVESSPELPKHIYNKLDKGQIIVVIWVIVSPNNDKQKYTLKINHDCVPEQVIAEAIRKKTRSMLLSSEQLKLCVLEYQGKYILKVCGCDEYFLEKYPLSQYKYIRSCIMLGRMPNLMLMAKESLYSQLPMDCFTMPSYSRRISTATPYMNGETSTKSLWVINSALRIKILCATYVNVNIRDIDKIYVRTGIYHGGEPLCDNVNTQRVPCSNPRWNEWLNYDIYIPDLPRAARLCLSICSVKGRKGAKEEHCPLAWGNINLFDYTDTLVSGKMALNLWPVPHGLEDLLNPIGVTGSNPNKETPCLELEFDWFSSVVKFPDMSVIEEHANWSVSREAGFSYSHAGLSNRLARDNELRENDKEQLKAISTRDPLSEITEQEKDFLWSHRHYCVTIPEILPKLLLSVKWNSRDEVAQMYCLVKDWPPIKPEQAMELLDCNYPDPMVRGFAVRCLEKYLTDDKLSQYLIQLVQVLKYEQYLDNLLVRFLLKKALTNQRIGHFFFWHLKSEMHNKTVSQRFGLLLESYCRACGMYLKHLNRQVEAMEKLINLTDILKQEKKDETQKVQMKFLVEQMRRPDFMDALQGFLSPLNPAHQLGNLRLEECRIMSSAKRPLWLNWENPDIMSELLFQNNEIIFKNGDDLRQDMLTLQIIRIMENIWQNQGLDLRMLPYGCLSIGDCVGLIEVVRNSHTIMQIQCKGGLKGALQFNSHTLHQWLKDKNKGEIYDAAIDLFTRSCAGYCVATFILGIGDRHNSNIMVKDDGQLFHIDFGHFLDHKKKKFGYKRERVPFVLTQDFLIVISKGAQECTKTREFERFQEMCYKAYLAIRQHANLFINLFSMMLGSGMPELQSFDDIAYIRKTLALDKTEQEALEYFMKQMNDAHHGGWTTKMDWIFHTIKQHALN
Sequence of PI3K α (P27986 whole entry partner): as the sequence (P27986 whole entry partner) above

Row | IC50 (PI3K β) [nM] | Structure (SMILES) | IC50 (mTORC) [nM] | IC50 (PI3K α) [nM] | IC50 (PI3K γ) [nM] | IC50 (PI3K δ) [nM] | IC50 (PI3K β; Table 1, read-out: PI3K β IC50) [nM]
1 |  | CC(C)n1nc(-c2cc3cc(O)ccc3[nH]2)c2c(N)nccc21 [Compound 45] | > 500 |  |  |  | 
2 |  | COCCn1nc(-c2cc3cc(O)ccc3[nH]2)c2c(N)ncnc21 [Compound 40] | < 100 | > 500 | > 500 | > 500 | 
3 | ≤ 50 | CNC(=O)Nc1nc2ccc(-c3cn(C(C)C)c4ncnc(N)c34)cc2s1 [Compound 22] |  |  |  |  | 
4 |  | CC(C)n1nc(-c2cc3cc(O)c(Cl)cc3[nH]2)c2c(N)ncnc21 [Compound 32] | < 500 | > 500 | > 500 | > 500 | 
5 |  | CC(C)n1nc(-c2cc3ccc(C(N)=O)cc3[nH]2)c2c(N)ncnc21 [Compound 25] | < 500 | > 500 |  |  | 
6 |  | Nc1ncnc2c1c(-c1cc3cc(O)ccc3[nH]1)nn2Cc1cccnc1 [Compound 38] | < 500 | > 500 | > 500 | > 500 | 
7 |  | COc1ccc2cc(-c3nn(C4CCOCC4)c4ncnc(N)c34)[nH]c2c1 [Compound 59] | > 500 | > 500 | > 500 |  | > 500
8 |  | COc1cc2cc(-c3nn(C(C)C)c4ncnc(N)c34)[nH]c2cc1Cl [Compound 29] | > 500 |  |  |  | 
9 |  | Nc1ncnc2c1c(-c1cc3cc(O)ccc3[nH]1)nn2CCN1CCOCC1 [Compound 33] | < 500 | > 500 | > 500 | > 500 | 
10 |  | CC(C)N1CCC(n2nc(-c3cc4cc(O)ccc4[nH]3)c3c(N)ncnc32)CC1 [Compound 55] | < 500 | > 500 | > 500 |  | > 500
11 |  | CNC(=O)Cn1nc(-c2cc3cc(O)ccc3[nH]2)c2c(N)ncnc21 [Compound 35] | > 500 | > 500 | > 500 | > 500 | 
12 |  | Nc1ncnc2c1c(-c1cc3ccc(O)cc3[nH]1)nn2C1CCOCC1 [Compound 60] | < 100 | > 500 | < 100 |  | > 500
13 |  | Nc1ncnc2c1c(-c1cc3cc(O)ccc3[nH]1)nn2CC(=O)N1CCOCC1 [Compound 34] | > 500 | > 500 | > 500 | > 500 | 
14 |  | CC(C)n1nc(-c2cc3ccc(C#N)cc3[nH]2)c2c(N)ncnc21 [Compound 24] | > 500 | > 500 |  |  | 
15 |  | Nc1ncnc2c1c(-c1cc3cc(O)ccc3[nH]1)nn2C1CCC1 [Compound 27] | < 25 |  |  |  | 
16 |  | CC(C)N1CCC(n2nc(-c3cc4cc(O)cc(Cl)c4[nH]3)c3c(N)ncnc32)CC1 [Compound 56] | > 500 | > 500 | > 500 |  | > 500
17 |  | CC(C)n1nc(-c2cc3c(O)cccc3[nH]2)c2c(N)ncnc21 [Compound 37] | > 500 | < 500 | < 500 | < 500 | 
18 |  | Nc1ncnc2c1c(-c1cc3cc(O)ccc3[nH]1)nn2C1CC(=O)C1 [Compound 53] | < 100 | > 500 | > 500 |  | > 500
19 |  | CN1CCN(C2CCC(n3nc(-c4cc5cc(O)ccc5[nH]4)c4c(N)ncnc43)CC2)CC1 (stereo not shown) [Compound 58] | > 500 | > 500 | > 500 |  | > 500
20 |  | CC(C)n1nc(-c2cc3c(Cl)ccc(O)c3[nH]2)c2c(N)ncnc21 [Compound 39] | < 10 | > 500 | > 500 | > 500 | 
21 |  | Nc1ncnc2c1c(-c1cc3cc(O)ccc3[nH]1)nn2C1CCC(N2CCOCC2)CC1 (stereo not shown) [Compound 57] | < 25 | > 500 | > 500 |  | > 500
22 |  | Nc1ncnc2c1c(-c1cc3cccc(O)c3[nH]1)nn2C1CCCC1 [Compound 36] | < 10 | > 500 | < 100 | < 500 | 
23 |  | Nc1ncnc2c1c(-c1cc3cc(O)ccc3[nH]1)nn2C1CC(O)C1 (stereo not shown) [Compound 54] | < 25 | > 500 | > 500 |  | > 500
